Results published in patent publication US12460346B2, “Lactam coated textile” (Conopco, Inc., priority 2018, dated 2025).

Assays:
P. aeruginosa (PA01) [1] = assay: Pseudomonas PAO1 biofilm inhibition on lactam-based textiles by SEM; assay type: cell-based, Pseudomonas aeruginosa; conditions: for Bacteria (pixels): SEM image; for % bacteria coverage: bacteria pixels/total pixels of SEM image
Protocol: P. aeruginosa (PA01) was cultured overnight at 37° C. on TSA plates. Prior to use in tests, colonies were added to 20 mL of brain-heart infusion broth (BHI) containing 5 mL of glass beads and homogenised for 30 seconds. The optical density of the organism was measured and adjusted to give 1×10^8 cfu/mL. Inoculum (0.3 ml) was placed directly on modified and unmodified textiles in 24-well plates and incubated overnight in appropriate broth. Textiles were subsequently removed, washed in PBS and fixed for microscopy.
Fixative was prepared as described (Erlandsen, Kristich, Dunny, Wells, J. Histochem Cytochem, 2004), using 2% para-formaldehyde, 2% gluteraldehyde and 0.15M Sodium Cacodylate and 0.15% Alcian Blue, pH 7.4. The fixative was applied (enough to cover the biofilms) to the wells containing the biofilms on suitable substrates for 2 hours, this varied between 2 and 22 hours.
Following fixation, the fixative solution was removed and 0.15M Sodium Cacodylate buffer was added to the samples. The samples were then stored in the fridge until processing. Samples were washed 3×5 mins with […] fresh buffer to remove any remaining glutaraldehyde. Subsequently, a solution of 1% Osmium tetroxide (OsO4) was prepared 1:1 with 0.15M Sodium Cacodylate buffer, and added to the samples before incubating for 1 hour at room temperature. Samples were rinsed with distilled water 3×10 mins. 0.5% aqueous Uranyl acetate was then added to the samples before incubation in the dark for 30 mins at room temperature.
Samples were then dehydrated in an ascending ethanol series:
Samples were transferred from the original 24-well plate into a petri dish of hexamethyldisilazane (HMDS) for 5 mins, then to a second dish for 5 mins before being placed in a new 24-well plate lined with filter paper. The plate was then placed in a desiccator overnight to allow evaporation and drying or samples.
After sputter coating with gold-palladium in an argon filled chamber, samples were viewed under a JEOL JSM-6400 scanning electron microscope and images were assembled using the Photoshop software.
The SEM images were measured and the amount of pixels of textile and pixels of bacteria were determined. The % of bacteria coverage is the bacteria pixels/total pixels.

P. aeruginosa GFP = assay: Pseudomonas Aeruginosa-GFP biofilm growth curve inhibition on lactam-based textiles by fluorescence; assay type: cell-based; conditions: lactam in acrylic emulsion binder, printed, or encapsulated and padded on textile; compared to textile without the lactam
Protocol: A fluorescent strain of P. aeruginosa was used to allow growth inhibition to be measured by fluorescence. P. aeruginosa GFP was cultured for 2 days at 30° C. on MEA plates. Prior to use in tests, colonies were added to 20 mL of brain-heart infusion broth (BHI) containing 5 mL of glass beads and homogenised for 30 seconds. The optical density was measured and adjusted to give 1×10^8 cfu/m. Subsequently, 0.5 mL of the strain in BHI broth was added to the wells of a 24 well plate containing the substrates. This was then placed in the plate reader and read every hour at […]. The experiment tested a control (textile without lactam coating, the sample (textile coated with lactam) and a positive control (chlorhexidine).

P. aeruginosa (PA01) [2] = assay: Biofilm growth inhibition on lactam-based acrylic emulsion textiles by viability (AlamarBlue), Pseudomonas; assay type: cell-based, Pseudomonas aeruginosa; conditions: for Mean biofilm metabolism (AlamarBlue): acrylic emulsion coated with lactam, overnight, lower than 100 = reduction in biofilm growth
Protocol: (§1) P. aeruginosa (PA01), S. aureus (Newman's strain) were cultured overnight at 37° C. on TSA 5 plates. C. albicans […] was cultured for 2 days at 30° C. on MEA plates. Prior to use in tests, colonies of each organism were added to 20 mL of brain-heart infusion broth (BHI) containing 5 mL of glass beads and homogenised for 30 seconds. The optical density of each organism was measured and adjusted to give 1×10^7 cfu/mL. Inoculum (0.3 ml) was placed directly on acrylic emulsion coated cotton and PET textiles (with and without lactam) that have been previously positioned inside the wells of 6-well plates and incubated overnight in appropriate broth. Textiles were subsequently removed, washed in PBS and metabolism assessed by AlamarBlue on a plate reader. Data were presented as percentage of no-lactam control. A number lower than 100 indicates a reduction in microorganism biofilm growth for the lactam coated textile compared to uncoated textile.

C. albicans 3153A = assay: Biofilm growth inhibition on lactam-based acrylic emulsion textiles by viability (AlamarBlue), Candida; assay type: cell-based, Candida albicans; conditions: acrylic emulsion coated with lactam, overnight, lower than 100 = reduction in biofilm growth
Protocol: as §1

[3] = tested on: S. aureus (Newman's strain); assay: Biofilm growth inhibition on lactam-based acrylic emulsion textiles by viability (AlamarBlue), Staphylococcus; assay type: cell-based, Staphylococcus aureus; conditions: acrylic emulsion coated with lactam, overnight, lower than 100 = reduction in biofilm growth
Protocol: as §1

## C=C1C(c2ccc(Cl)cc2)=CC(=O)N1CCC[N+](C)(C)C [lactam (488) (cationic)]
P. aeruginosa (PA01) [1]; fluorinated polypropylene non-woven coated with cationic lactam, control textile 30,880
  Bacteria (pixels): 15,864 pixels
P. aeruginosa (PA01) [1]; fluorinated polypropylene non-woven coated with cationic lactam, control textile 78.0%
  % bacteria coverage: 36.6%
P. aeruginosa (PA01) [1]; fluorinated polypropylene non-woven coated with cationic lactam, control textile 78.0%, listed as Cationic Lactam
  % bacteria coverage: 36.6%

## C=C1NC(=O)C=C1c1ccc(Cl)cc1 [lactam (488), 4-(4-chlorophenyl)-5-methylene-pyrrol-2-one]
P. aeruginosa (PA01) [1]; polypropylene non-woven coated with lactam in acrylic emulsion, control textile 10,851
  Bacteria (pixels): 2,660 pixels
P. aeruginosa (PA01) [1]; polypropylene non-woven coated with lactam in acrylic emulsion, control textile 32.1%
  % bacteria coverage: 10.1%
P. aeruginosa (PA01) [1]; polypropylene non-woven coated with lactam in acrylic emulsion, control textile 32.1%, listed as lactam
  % bacteria coverage: 10.1%
P. aeruginosa (PA01) [1]; polypropylene non-woven printed with lactam in solvents, control textile 26,917
  Bacteria (pixels): 23,381 pixels
P. aeruginosa (PA01) [1]; polypropylene non-woven printed with lactam in solvents, control textile 62.6%
  % bacteria coverage: 48.0%
P. aeruginosa (PA01) [1]; polypropylene non-woven printed with lactam in solvents, control textile 62.6%, listed as lactam
  % bacteria coverage: 48.0%
P. aeruginosa (PA01) [1]; viscose non-woven padded with lactam in polyurea encaps, control textile 16,291
  Bacteria (pixels): 1,806 pixels
P. aeruginosa (PA01) [1]; viscose non-woven padded with lactam in polyurea encaps, control textile 47.8%
  % bacteria coverage: 8.7%
P. aeruginosa (PA01) [1]; viscose non-woven padded with lactam in polyurea encaps, control textile 47.8%, listed as lactam
  % bacteria coverage: 8.7%
P. aeruginosa GFP
  Pseudomonas Aeruginosa-GFP biofilm growth on the textile (fluorescence growth curve): reduced Pseudomonas Aeruginosa-GFP biofilm growth
P. aeruginosa (PA01) [2]; Cotton
  Mean biofilm metabolism (AlamarBlue): 54.89 percentage of no-lactam control
P. aeruginosa (PA01) [2]; Polyethylene
  Mean biofilm metabolism (AlamarBlue): 80.95 percentage of no-lactam control
P. aeruginosa (PA01) [2]; polyethylene and cotton coated with lactam
  biofilm growth compared to textile with no coating (in words): reduction in Pseudomonas Aeruginosa biofilm growth
C. albicans 3153A; Cotton
  Mean biofilm metabolism (AlamarBlue): 84.69 percentage of no-lactam control
C. albicans 3153A; Polyethylene
  Mean biofilm metabolism (AlamarBlue): 67.83 percentage of no-lactam control
[3]; Cotton
  Mean biofilm metabolism (AlamarBlue): 33.35 percentage of no-lactam control
[3]; Polyethylene
  Mean biofilm metabolism (AlamarBlue): 47.88 percentage of no-lactam control
